Experimental data reported in US8993542B2, “Methods of treating viral infections” (priority 2008, dated 2015).

Legend:
Assay type in all cases: cell-based
HIV-1IIIB [1] = assay: TCID50 determination of drug-treated HIV-1IIIB; set-up: TCID50, XTT Endpoint / TCID50, RT Endpoint / TCID50, P24 Endpoint: unit not given here
HIV = assay: microbe, parasite or virus in culture
HIV-1IIIB [2] = assay: Two-drug combination antiviral assay in CEM cells (CPE), MacSynergy II; conditions: for Antagonism Volume, Result 1 / Antagonism Volume, Result 2 / Antagonism Volume, Result 3 / Mean Antagonism Volume (n = 3) / Mean Synergy Volume (n = 3) / Synergy Volume, Result 1 / Synergy Volume, Result 2 / Synergy Volume, Result 3: in combination with CMX157, CEM-SS cells, 95% confidence
[3] = virus treated 15 minutes with 0.039 nM drug
[4] = virus treated 15 minutes with 0.125 nM drug
[5] = virus treated 15 minutes with 0.39 nM drug
[6] = virus treated 15 minutes with 1.25 nM drug
[7] = virus treated 15 minutes with 3.9 nM drug
[8] = virus treated 15 minutes with 12.5 nM drug
[9] = virus treated 15 minutes with 39.1 nM drug
[10] = virus treated 15 minutes with 125 nM drug

With `CCCCCCCCCCCCCCCCOCCCOP(=O)(O)OCCOCn1cnc2c(=O)[nH]c(N)nc21` [HDP-ACV] the “effect on infectious virus” value (HIV-1IIIB [1]; 15 minutes, 0.039 to 125 nM) was “no effect”, the “Fold Decrease From VC, P24 Endpoint” value (HIV-1IIIB [1]; [3]) was “(0) Fold” and the “Fold Decrease From VC, RT Endpoint” value (HIV-1IIIB [1]; [3]) was “(1.2) Fold”. For the same compound, the “Fold Decrease From VC, XTT Endpoint” value (HIV-1IIIB [1]; [3]) was “(0) Fold”, the “TCID50, P24 Endpoint” value (HIV-1IIIB [1]; [3]) was 30411 and the “TCID50, RT Endpoint” value (HIV-1IIIB [1]; [3]) was 132749. For the same compound, the “TCID50, XTT Endpoint” value (HIV-1IIIB [1]; [3]) was 18115, the “Fold Decrease From VC, P24 Endpoint” value (HIV-1IIIB [1]; [4]) was “(0) Fold” and the “Fold Decrease From VC, RT Endpoint” value (HIV-1IIIB [1]; [4]) was “(1.6) Fold”. For the same compound, the “Fold Decrease From VC, XTT Endpoint” value (HIV-1IIIB [1]; [4]) was “(1.1) Fold”, the “TCID50, P24 Endpoint” value (HIV-1IIIB [1]; [4]) was 36277 and the “TCID50, RT Endpoint” value (HIV-1IIIB [1]; [4]) was 102336. The “TCID50, XTT Endpoint” value (HIV-1IIIB [1]; [4]) was 16145, the “Fold Decrease From VC, P24 Endpoint” value (HIV-1IIIB [1]; [5]) was “(0) Fold” and the “Fold Decrease From VC, RT Endpoint” value (HIV-1IIIB [1]; [5]) was “(1.1) Fold”. The “Fold Decrease From VC, XTT Endpoint” value (HIV-1IIIB [1]; [5]) was “(0) Fold”, the “TCID50, P24 Endpoint” value (HIV-1IIIB [1]; [5]) was 30411 and the “TCID50, RT Endpoint” value (HIV-1IIIB [1]; [5]) was 144887. The “TCID50, XTT Endpoint” value (HIV-1IIIB [1]; [5]) was 20325, the “Fold Decrease From VC, P24 Endpoint” value (HIV-1IIIB [1]; [6]) was “(1.4) Fold” and the “Fold Decrease From VC, RT Endpoint” value (HIV-1IIIB [1]; [6]) was “(1.6) Fold”. For the same compound, the “Fold Decrease From VC, XTT Endpoint” value (HIV-1IIIB [1]; [6]) was “(1.1) Fold”, the “TCID50, P24 Endpoint” value (HIV-1IIIB [1]; [6]) was 21529 and the “TCID50, RT Endpoint” value (HIV-1IIIB [1]; [6]) was 102336. For the same compound, the “TCID50, XTT Endpoint” value (HIV-1IIIB [1]; [6]) was 16145, the “Fold Decrease From VC, P24 Endpoint” value (HIV-1IIIB [1]; [7]) was “(0) Fold” and the “Fold Decrease From VC, RT Endpoint” value (HIV-1IIIB [1]; [7]) was “(1.6) Fold”. The “Fold Decrease From VC, XTT Endpoint” value (HIV-1IIIB [1]; [7]) was “(0) Fold”, the “TCID50, P24 Endpoint” value (HIV-1IIIB [1]; [7]) was 30411 and the “TCID50, RT Endpoint” value (HIV-1IIIB [1]; [7]) was 102336. The “TCID50, XTT Endpoint” value (HIV-1IIIB [1]; [7]) was 20325, the “Fold Decrease From VC, P24 Endpoint” value (HIV-1IIIB [1]; [8]) was “(0) Fold” and the “Fold Decrease From VC, RT Endpoint” value (HIV-1IIIB [1]; [8]) was “(1.1) Fold”. The “Fold Decrease From VC, XTT Endpoint” value (HIV-1IIIB [1]; [8]) was “(0) Fold”, the “TCID50, P24 Endpoint” value (HIV-1IIIB [1]; [8]) was 36227 and the “TCID50, RT Endpoint” value (HIV-1IIIB [1]; [8]) was 144887. For the same compound, the “TCID50, XTT Endpoint” value (HIV-1IIIB [1]; [8]) was 18115, the “Fold Decrease From VC, P24 Endpoint” value (HIV-1IIIB [1]; [9]) was “(0) Fold” and the “Fold Decrease From VC, RT Endpoint” value (HIV-1IIIB [1]; [9]) was “(0) Fold”. The “Fold Decrease From VC, XTT Endpoint” value (HIV-1IIIB [1]; [9]) was “(1.1) Fold”, the “TCID50, P24 Endpoint” value (HIV-1IIIB [1]; [9]) was 30411 and the “TCID50, RT Endpoint” value (HIV-1IIIB [1]; [9]) was 204659. For the same compound, the “TCID50, XTT Endpoint” value (HIV-1IIIB [1]; [9]) was 16145, the “Fold Decrease From VC, P24 Endpoint” value (HIV-1IIIB [1]; [10]) was “(1.4) Fold” and the “Fold Decrease From VC, RT Endpoint” value (HIV-1IIIB [1]; [10]) was “(0) Fold”. For the same compound, the “Fold Decrease From VC, XTT Endpoint” value (HIV-1IIIB [1]; [10]) was “(0) Fold”, the “TCID50, P24 Endpoint” value (HIV-1IIIB [1]; [10]) was 21529 and the “TCID50, RT Endpoint” value (HIV-1IIIB [1]; [10]) was 162566. The “TCID50, XTT Endpoint” value (HIV-1IIIB [1]; [10]) was 18115.
`Nc1ccn([C@@H]2CS[C@H](CO)O2)c(=O)n1` [3TC, (2R, 5S, cis)-4-amino-1-(2-hydroxymethyl-1,3-oxathiolan-5-yl)-(1H)-pyrimidin-2-one] showed an IC50 (HIV; Human immunodeficiency virus 1, PANEL 1, WT) of 3.24 µM, an IC50 (HIV; Human immunodeficiency virus 1, PANEL 2, WT) of 4.44 µM and an IC50 (HIV; Human immunodeficiency virus 1, PANEL 3, 6 TAMs, no 184) of 13.9 µM. It also gave an IC50 (HIV; Human immunodeficiency virus 1, PANEL 6, 6 TAMs + 184) of over 300 µM, an IC50 (HIV; Human immunodeficiency virus 1, PANEL 7, 184V) of over 300 µM and an IC50 (HIV; Human immunodeficiency virus 1, PANEL 9, 69ins, no 184) of 45.9 µM. The IC50 (HIV; Human immunodeficiency virus 1, PANEL 12, 69ins + 184) was over 300 µM, the IC50 (HIV; Human immunodeficiency virus 1, PANEL 14, 65R, no 184) was 70.8 µM and the IC50 (HIV; Human immunodeficiency virus 1, PANEL 15, 65R + 184V) was over 300 µM. It also gave an IC50 (HIV; Human immunodeficiency virus 1, PANEL 17, L74V) of 6.98 µM, an IC50 (HIV; Human immunodeficiency virus 1, PANEL 19, L74V + M184V) of over 300 µM and an IC50 (HIV; Human immunodeficiency virus 1, PANEL 26, 151M, no 184) of 89.6 µM. For the same compound, the IC50 (HIV; Human immunodeficiency virus 1, PANEL 28, 151M + 184) was over 300 µM, the IC50 (HIV; Human immunodeficiency virus 1, PANEL 29, L74V − SDM) was 6.1 µM and the IC50 (HIV; Human immunodeficiency virus 1, PANEL 30, M184V − SDM) was over 300 µM. For the same compound, the IC50 (HIV; Human immunodeficiency virus 1, PANEL 31, K65R − SDM) was 43.3 µM, the IC50 (HIV; Human immunodeficiency virus 1, PANEL 33, T215Y) was 6.12 µM and the IC50 (HIV; Human immunodeficiency virus 1, PANEL 34, T215Y + M184V) was over 300 µM. The IC50 (HIV; Human immunodeficiency virus 1, PANEL 35, M41L + T215Y) was 7.55 µM, the IC50 (HIV; Human immunodeficiency virus 1, PANEL 37, M41L + T215Y + M184V) was over 300 µM and the IC50 (HIV; Human immunodeficiency virus 1, PANEL 38, M41L + L210W + T215Y) was 10.3 µM. The IC50 (HIV; Human immunodeficiency virus 1, PANEL 39, M41L + L210W + T215Y) was 5.89 µM, the IC50 (HIV; Human immunodeficiency virus 1, PANEL 40, M41L + L210W + T215Y + M184V) was over 300 µM and the IC50 (HIV; Human immunodeficiency virus 1, PANEL 41, M41L + L210W + T215Y + M184V) was over 300 µM. The IC50 (HIV; Human immunodeficiency virus 1, PANEL 42, D67N + K70R) was 8.07 µM, the IC50 (HIV; Human immunodeficiency virus 1, PANEL 44, D67N + K70R + T215F + K219E + M184V) was over 300 µM and the IC50 (HIV; Human immunodeficiency virus 1, PANEL 45, L210W + T215Y) was 7.26 µM. For the same compound, the IC50 (HIV; Human immunodeficiency virus 1, PANEL 46, D67N + K70E) was 10.8 µM, the IC50 (HIV; Human immunodeficiency virus 1, PANEL 47, D67N + K70E + M184V) was over 300 µM and the IC50 (HIV; Human immunodeficiency virus 1, PANEL 48, K70E + M184V) was over 300 µM.
For `Cc1ccnc2c1NC(=O)c1cccnc1N2C1CC1` [Nevirapine (NVP), nevirapine], the “Antagonism Volume, Result 1” value (HIV-1IIIB [2]) was 0 nM^2 %, μM^2 % or nMμM %, the “Antagonism Volume, Result 2” value (HIV-1IIIB [2]) was 0 nM^2 %, μM^2 % or nMμM % and the “Antagonism Volume, Result 3” value (HIV-1IIIB [2]) was 0/0 nM^2 %, μM^2 % or nMμM %. The “Mean Antagonism Volume (n = 3)” value (HIV-1IIIB [2]) was 0 nM^2 %, μM^2 % or nMμM %, the “Mean Synergy Volume (n = 3)” value (HIV-1IIIB [2]) was 38.5 nM^2 %, μM^2 % or nMμM % and the “Synergy Volume, Result 1” value (HIV-1IIIB [2]) was 74.1 nM^2 %, μM^2 % or nMμM %. For the same compound, the “Synergy Volume, Result 2” value (HIV-1IIIB [2]) was 41.5 nM^2 %, μM^2 % or nMμM % and the “Synergy Volume, Result 3” value (HIV-1IIIB [2]) was 0/0 nM^2 %, μM^2 % or nMμM %.
In the case of `CCC[C@@]1(CCc2ccccc2)CC(O)=C([C@H](CC)c2cccc(NS(=O)(=O)c3ccc(C(F)(F)F)cn3)c2)C(=O)O1` [Tipranavir (TPV), tipranavir], the “Antagonism Volume, Result 1” value (HIV-1IIIB [2]) is reported as 0 nM^2 %, μM^2 % or nMμM %, the “Antagonism Volume, Result 2” value (HIV-1IIIB [2]) is reported as −8.60 nM^2 %, μM^2 % or nMμM % and the “Antagonism Volume, Result 3” value (HIV-1IIIB [2]) is reported as 0 nM^2 %, μM^2 % or nMμM %. The “Mean Antagonism Volume (n = 3)” value (HIV-1IIIB [2]) was −2.87 nM^2 %, μM^2 % or nMμM %, the “Mean Synergy Volume (n = 3)” value (HIV-1IIIB [2]) was 52.2 nM^2 %, μM^2 % or nMμM % and the “Synergy Volume, Result 1” value (HIV-1IIIB [2]) was 110 nM^2 %, μM^2 % or nMμM %. The “Synergy Volume, Result 2” value (HIV-1IIIB [2]) was 29.4 nM^2 %, μM^2 % or nMμM % and the “Synergy Volume, Result 3” value (HIV-1IIIB [2]) was 16.8 nM^2 %, μM^2 % or nMμM %.
With `CC(C)CN(C[C@@H](O)[C@H](Cc1ccccc1)NC(=O)O[C@H]1CCOC1)S(=O)(=O)c1ccc(N)cc1` [Amprenavir (APV), amprenavir] the “Antagonism Volume, Result 1” value (HIV-1IIIB [2]) was 0 nM^2 %, μM^2 % or nMμM %, the “Antagonism Volume, Result 2” value (HIV-1IIIB [2]) was 0 nM^2 %, μM^2 % or nMμM % and the “Antagonism Volume, Result 3” value (HIV-1IIIB [2]) was 0 nM^2 %, μM^2 % or nMμM %. The “Mean Antagonism Volume (n = 3)” value (HIV-1IIIB [2]) was 0 nM^2 %, μM^2 % or nMμM %, the “Mean Synergy Volume (n = 3)” value (HIV-1IIIB [2]) was 51.4 nM^2 %, μM^2 % or nMμM % and the “Synergy Volume, Result 1” value (HIV-1IIIB [2]) was 104 nM^2 %, μM^2 % or nMμM %. For the same compound, the “Synergy Volume, Result 2” value (HIV-1IIIB [2]) was 43.1 nM^2 %, μM^2 % or nMμM %, the “Synergy Volume, Result 3” value (HIV-1IIIB [2]) was 7.31 nM^2 %, μM^2 % or nMμM % and the “Interpretation of Antiviral Results (MacSynergy)” value (HIV-1IIIB [2]; two-drug combination (with CMX157; control d4T/RBV), CEM-SS cells) was “slightly synergistic”.
